Test [1] concerns Pseudomonas aeruginosa ATCC27853. The test can be described thus: Broth dilution MIC/MBC against Pseudomonas aeruginosa. Type of test: cell-based. Conditions: P. aeruginosa, 24 h, 37° C. Here is the method: (§1) Bacterial strains of Pseudomonas aeruginosa ATCC27853 (gram-negative) and Staphylococcus aureus ATCC25923 (gram-positive) were subjected to antibacterial studies. The bacteria were sub-cultured and maintained on Mueller Hinton Agar (MHA). A stock solution of the nanomaterial (8 mg/ml) was sonicated for 10 minutes in Mueller Hinton Broth (MHB) to obtain a homogenized solution for an antibacterial assay. Inoculum was prepared by adjusting the cell number to 1.5×10^8 colony forming unit per milliliter (CFU per ml) by using freshly grown strains, grown overnight at 37° C. […] About 100 μL of adjusted inoculum was inoculated into each tube and were further incubated for 24 h (at 37° C.) with agitation of 120 rotations per minute (rpm). A control tube of bacteria, also referred as control, had no nanomaterial. 10 μL extracted from the tubes were put on prepared MHA plates and further incubated at the same conditions. After the completion of incubation duration, the MHA plates were recorded for MIC and MBC values. MIC was taken as the lowest concentration of nanomaterial that inhibited 90% of the bacterial growth. However, MBC was recorded as the lowest concentration that killed the bacterial cells or had CFU less than three. […]
A general note: Broth dilution looks for growth in wells or tubes with falling amounts of substance.

Test [2] relates to Staphylococcus aureus ATCC25923. Kind of test: Broth dilution MIC/MBC against Staphylococcus aureus. The format is cell-based. Conditions: S. aureus, 24 h, 37° C. How it is done:
as §1

The subject of test [3] is human colorectal carcinoma (HCT-116) cells. The test can be described thus: MTT cell viability assay on HCT-116 cells. The format is cell-based. How it is done: (§2) Two cancer cell lines, namely, HCT-116 and HeLa were considered to study the impact of samples (medicinal nanocomposite) on viability and proliferation of such cell lines. A non-cancer cell line, embryonic kidney cells (HEK-293), was considered as a control cell line. HCT-116, HeLa and HEK-293 are collectively referred to as ‘the cells’ or individually as ‘the cell’ unless otherwise specified. The cells were cultured and maintained in the Dulbecco's Modified Eagle Media (DMEM), L-glutamine (5%), penicillin (1%), streptomycin (1%), Fetal bovine serum (FBS) (10%), and selenium chloride (1%). The cells were grown in 96 well plates in a 5% CO2 incubator (Thermo Fisher Scientific, Inc., Waltham, MA, USA) at 37° C., and 75-80% confluence cells and the cells processed for further assay.
A MTT assay is a colorimetric assay for measuring cell metabolic activity. […]
In control and nano formulation treated cells, MTT (5 mg/ml) was added, and the cells were further incubated in a CO2 incubator for 4 hours. Further, the cell culture media was replaced with dimethyl sulfoxide (DMSO) (1%), and the 96-well plate was further examined under an enzyme-linked immunoassay (ELISA) plate reader (Biotek Instruments, USA) at a wavelength of 570 nm. The percentage of cell viability was calculated for a statistical analysis. […]
A general note: Tetrazolium dyes change colour on reduction, which living cells bring about.

In test [4] the test system is human cervical cancer (HeLa) cells. Kind of test: MTT cell viability assay on HeLa cells. The format is cell-based. The settings on record: for effect on HeLa cell viability, growth and proliferation (in words): 48 hours, 5.0 to 50 μg/ml. Here is the method: as §2
A MTT assay is a colorimetric assay for measuring cell metabolic activity. The MTT assay is based on the ability of nicotinamide adenine dinucleotide phosphate (NADPH)-dependent cellular oxidoreductase enzymes to reduce the tetrazolium dye MTT to insoluble formazan, which has a purple colour. […] In control group, MSS, 1 wt. % Ag/MSS, 2 wt. % Ag/MSS, 4 wt. % Ag/MSS, 6 wt. % Ag/MSS, Ag-silicalite, and CP were […] and after 48 hours, the cells were incubated in MTT (Sigma-Aldrich, St. Louis, MO, USA) for 4 hours.
In control and nano formulation treated cells, MTT (5 mg/ml) was added, and the cells were further incubated in a CO2 incubator for 4 hours. Further, the cell culture media was replaced with dimethyl sulfoxide (DMSO) (1%), and the 96-well plate was further examined under an enzyme-linked immunoassay (ELISA) plate reader (Biotek Instruments, USA) at a wavelength of 570 nm. The percentage of cell viability was calculated for a statistical analysis. ANOVA were used to analyze the data. All the analysis was run on GraphPad Prism software. P value less than 0.05 was taken as significant difference in results.

The subject of test [5] is HCT-116 cells. Kind of test: Apoptotic DAPI staining assay on HCT-116 cells. The format is cell-based, human. The settings on record: HCT-116, 25 μg/ml, 48-hour treatment. The source says: DAPI is a fluorescent dye used to distinguish between live and dead cells. In live cells, the dye pass through a membrane less effectively. Therefore, the DAPI staining assay is an effective marker to identify the cell viability based on the cell structural changes. The morphology changes of cancer nuclear structure due to treatments of MSS, 1 wt. % Ag/MSS, 2 wt. % Ag/MSS, 4 wt. % Ag/MSS, 6 wt. % Ag/MSS, Ag-silicalite, and CP were examined by the DAPI staining assay. Cells were divided into two groups such as a control group and an experimental group. The control group was without nano formulation and CP treatments. In the experimental group, 1 wt. % Ag/MSS, 2 wt. % Ag/MSS, 4 wt. % Ag/MSS, 6 wt. % Ag/MSS, Ag-silicalite, and CP (25 μg/ml) were added.
Post 48-hour treatment, the control and experimental groups were exposed to ice-cold (4%) paraformaldehyde and further with Triton X-100 in the PBS solution. The cells were stained with DAPI (1.0 μg/ml) for 5 minutes under a dark environment, and the cells were finally washed with the PBS solution and cover slipped. A deoxyribonucleic acid (DNA) staining was examined by using confocal scanning microscope (Zeiss, Germany). The data presented as mean (±) standard deviation (SD) obtained from triplicates and one-way ANOVA followed by Dennett's post hoc test with GraphPad Prism Software (GraphPad Software, USA) for final statistical analysis.

On to `O=[N+]([O-])[O-].[Ag+]` [AgNO3, Silver nitrate], for which the “antibacterial activity, MIC/MBC (in words)” value in test [1] and in test [2] was “showed effectiveness” in each case.

In the case of `N.N.[Cl][Pt][Cl]` [CP, cisplatin], the “effect on HCT-116 cell viability, growth and proliferation (in words)” value in test [3] (48 hours, 5.0 to 50 μg/ml) was “dose-dependent inhibitory action”. Also, the “inhibitory concentration (IC50)” value in test [3] (HCT-116 cells, 48 hours treatment) turned out to be 13 µg/mL; in test [4] (HeLa cells, 48 hours treatment), 13 µg/mL. For the same compound, the “effect on HeLa cell viability, growth and proliferation (in words)” value in test [4] is listed as “dose-dependent inhibitory action”; in test [4] (listed as cisplatin), “significant decrease”. Besides, the “number of DAPI stained colon cancer cells versus control (in words)” value in test [5] was “significant decrease in the number of colon cancer cells”.
